Measurements reported in patent US20260000596A1, “SEMI-SYNTHETIC RHAMNOLIPIDS” (The Procter & Gamble Company, priority 2024, published 2026).
In brackets after ≈: the same amount, converted by molar mass.

How the values were obtained:
Assay type in all cases: cell-based
[1] = system: Escherichia coli ATCC 8739; experiment: Minimal Kill Concentration Assay (MKCA), E. coli; conditions: solvent DMSO, 20-minute contact time; for MBC: Escherichia coli, ATCC8739, 20 min, read-out: E. coli MKC (ppm)
Description: (§1) The MKC assay is a 96 well plate method to determine the minimum concentration of a test material or composition needed to kill Gram-negative and Gram-positive bacteria (Escherichia coli ATCC 8739 and Staphylococcus aureus ATCC 6538, respectively). The bacterial suspensions are prepared from 10× freezer stocks with 15% glycerol. The freezer stocks are centrifuged at 13,000×g (Eppendorf Centrifuge […] No. 541705483) for 1 minute. The supernatant is removed, and the cell pellet is resuspended in 1 mL saline (Sodium chloride solution 0.9%, Cytiva REF: Z1376), and then transferred to 9 mL saline. The target cfu/ml is 10^8, which is confirmed via serial diluting and plating on TSA plates (Tryptic Soy Agar-Sigma-Aldrich Cat #22091). Then 50 μL (25 μL if low on test materials) of bacteria is added to each well of a 96 well 0.5 mL V-Bottom plate (Greiner bio-one REF: 786201) to make a bacteria plate, one separate plate for each bacterium. The dilutions of the test compounds are prepared in a separate 96 well plate. The test compounds are tested at six dilutions in duplicates or with no replication diluted across the entire plate. The test compounds are prepared in Dimethyl Sulfoxide (Sigma Aldrich GR ACS Cat. No: MX1458-6) or sterile water at 2× the intended test concentration, and then serially diluted in the appropriate vehicle 1:2 across the plate using a multichannel. 50 μL (25 μL if low on test materials) from the test compound plate is added to each well in the bacteria plate all at once using an Integra VIAFLOW 96 channel pipette (Model: VIAFLO 96) and the Integra 300 μL Head (Part No. 6103). With addition of the 2× compounds bacteria plate, the compounds are diluted to a 1× test concentration. The addition of the test compounds to the bacteria wells starts the 20-minute contact time. The plates are mixed well using a Mix-Mate (Eppendorf SE). After 20 minutes, 1 μL from each well of the bacteria plate is transferred to premade Tryptic Soy Agar (TSA) plates (OmniTray Cell Culture Treated w/Lid Sterile, Cat. No: 165218) for spot plating using the Integra VIAFLOW 96 with the Integra 12.5 μL head (Part No. 6101). Then 4 μL from each well of the bacteria/compound plate is transferred to another 96 well plate containing 36 μL of neutralizer broth Modified Letheen Broth (BD Difco Letheen Broth, Modified REF 263010). The contact time is stopped at 20 minutes once the compound plate is neutralized. The plates are mixed well using a Mix-Mate and then 1 μL of the neutralizer+sample mix is transferred to a TSA OmniTray plate using the Integra VIAFLOW and Integra 12.5 μL head. The TSA spot plates are then incubated overnight for 20 hours at 37° C. in an Incubator. This process is done for both bacteria species. After overnight incubation, the plates are removed from the incubator and the results recorded by observing which dilutions had bacterial kill/growth. The last dilution that had kill for both replicates is recorded as the MKC. A positive control of Benzalkonium chloride (Sigma Aldrich Cat. No.: 12060-5G) and vehicle controls are always included in the test.

[2] = system: Staphylococcus aureus ATCC 6538; experiment: Minimal Kill Concentration Assay (MKCA), S. aureus; conditions: solvent DMSO, 20-minute contact time; for minimal kill concentration (20-minute contact): Staphylococcus aureus, ATCC6538, 20 min, read-out: S. aureus MKC (ppm)
Description: as §1

[3] = system: Staphylococcus aureus ATCC #6538; experiment: Minimum Inhibitory Concentration (MIC) Assay with Minimum Biocidal Concentration (MBC); conditions: solvent DMSO; for MBC / MIC: Staphylococcus aureus, ATCC6538, 24 h; for MBC: read-out: S. aureus MBC (ppm); for MIC: read-out: S. aureus MIC (ppm)
Description: The Minimum Inhibitory Concentration (MIC) Assay is a 96-well high throughput method that determines the minimum concentration of an active required to inhibit the growth of microorganisms. Organism preparation: Compounds were evaluated against the following microorganisms: Staphylococcus aureus ATCC #6538 (American Type Culture Collection, Manassas, Virginia, USA). To prepare bacteria solutions, bacteria were streaked on Tryptic Soy Agar (TSA) and incubated at 30-35° C. for 18-24 hrs. Confluent growth was transferred to saline (0.85% NaCl) and turbidometrically adjusted to a target concentration of 10^7-10^8 CFU/ml. This inoculum solution was further diluted 1:1000 in Tryptic Soy Broth (pH 7) for assay use. Assay: Two-fold serial dilutions were prepared in Dimethylsulfoxide (DMSO, Thermo Scientific Pierce DMSO, Sequencing Grade) or sterile water for each test sample. In a sterile 96-well plate, each dilution was further diluted in broth inoculum such that each well contained 5% dilution and 95% broth inoculum. Bacteria plates were incubated on an orbital shaker (Heidolph Titramax 1000 Vibrating Platform Shaker, 200-300 rpm) for 24±2 hrs at 35° C. After incubation, the optical density (OD) of each well was measured in a spectrophotometer (Victor Nivo Multimode Plate Reader) at 600 nm. […] To determine the Minimum Biocidal Concentration (MBC), 2 ul from each well was pipetted onto neutralizing agar (Modified Letheen Agar with Tween) and incubated for 24 hrs at 30-35° C. The MBC was determined as the most dilute concentration with no visible growth.

[4] = Table 1.5, >=50% inhibition, 24 hrs at 35° C.
[5] = Table 4, derivatized rhamnolipids

## CCCCCCCCCCCCCC(O)CC(=O)O (racemic) [DL-β-Hydroxypalmitic acid, reference compound]
[1]; Table 1.4b
  E. coli MKC (ppm): 136 ppm
[2]; Table 1.4b
  S. aureus MKC (ppm): >1090 ppm
[3]; [4]
  S. aureus MIC (ppm): 102 ppm
[3]; Table 1.5, no visible growth
  S. aureus MBC (ppm): 204 ppm

## CCCCCCCC(CC(=O)NC)O[C@@H]1O[C@@H](C)[C@H](O)[C@@H](O)[C@H]1O[C@H]1O[C@@H](C)[C@@H](O)[C@H](O)[C@@H]1O (stereo partly drawn) [3-(((2R,3R,4R,5R,6S)-4,5-dihydroxy-6-methyl-3-(((2R,3S,4S,5S,6S)-3,4,5-trihydroxy-6-methyltetrahydro-2H-pyran-2-yl)oxy)tetrahydro-2H-pyran-2-yl)oxy)-N-methyldecanamide]
[1]; [5]
  MBC: > 4940 µg/mL
[2]; [5]
  minimal kill concentration (20-minute contact): > 4940 µg/mL
[3]; Table 5
  MBC: > 1970 µg/mL
  MIC: > 1970 µg/mL

## CCCCCCCCCCCC(O)CC(=O)O (racemic) [DL-β-Hydroxymyristic acid, reference compound]
[1]; Table 1.4b
  E. coli MKC (ppm): 122 ppm
[2]; Table 1.4b
  S. aureus MKC (ppm): 244 ppm
[3]; [4]
  S. aureus MIC (ppm): 365 ppm
[3]; Table 1.5, no visible growth
  S. aureus MBC (ppm): 731 ppm

## CCCCCCCC(CC(=O)NCCO)O[C@@H]1O[C@@H](C)[C@H](O)[C@@H](O)[C@H]1O[C@@H]1O[C@@H](C)[C@H](O)[C@@H](O)[C@H]1O (stereo partly drawn) [3-(((2R,3R,4R,5R,6S)-4,5-dihydroxy-6-methyl-3-(((2S,3R,4R,5R,6S)-3,4,5-trihydroxy-6-methyltetrahydro-2H-pyran-2-yl)oxy)tetrahydro-2H-pyran-2-yl)oxy)-N-(2-hydroxyethyl)decanamide]
[1]; [5]
  MBC: > 5240 µg/mL
[2]; [5]
  minimal kill concentration (20-minute contact): > 5240 µg/mL
[3]; Table 5
  MBC: > 2090 µg/mL
  MIC: > 2090 µg/mL

## CCCCCC(CC(=O)O)OC1O[C@@H](C)[C@H](O)[C@@H](O)[C@H]1O (stereo partly shown) [Rha1C14]
[1]; Table 1.4b
  E. coli MKC (ppm): 781 ppm
[2]; Table 1.4b
  S. aureus MKC (ppm): 781 ppm
[3]; [4]
  S. aureus MIC (ppm): 625 ppm
[3]; Table 1.5, no visible growth
  S. aureus MBC (ppm): >10000 ppm

## CCCCCCCC(CC(=O)OC)O[C@@H]1O[C@@H](C)[C@H](O)[C@@H](O)[C@H]1O (stereo partly drawn) [methyl 3-(((2R,3R,4R,5R,6S)-3,4,5-trihydroxy-6-methyltetrahydro-2H-pyran-2-yl)oxy)decanoate]
[1]; [5]
  MBC: > 3490 µg/mL
[2]; [5]
  minimal kill concentration (20-minute contact): > 3490 µg/mL
[3]; Table 5
  MBC: 1400 µg/mL (≈ 4 mM)
  MIC: 1400 µg/mL (≈ 4 mM)

## Methyl 3-(((2R,3R,4R,5R,6S)-4,5-dihydroxy-6-methyl-3-(((2R,3S,4S,5S,6S)-3,4,5-trihydroxy-6-methyltetrahydro-2H-pyran-2-yl)oxy)tetrahydro-2H-pyran-2-yl)oxy)decanoate
[1]; [5]
  E. coli MKC (ppm): >4945.8 ppm
[2]; [5]
  S. aureus MKC (ppm): >4945.8 ppm
[3]; Table 5
  S. aureus MBC (ppm): 1978.3 ppm
  S. aureus MIC (ppm): 1978.3 ppm
